Data on one substance can be found in US7544773B2 (priority 2003, dated 2009).

The target in the experiment is Dr hemagglutinin (Escherichia coli, UniProt P24093). The format is cell-based, E. coli.
Chain of Dr hemagglutinin (P24093 22-160): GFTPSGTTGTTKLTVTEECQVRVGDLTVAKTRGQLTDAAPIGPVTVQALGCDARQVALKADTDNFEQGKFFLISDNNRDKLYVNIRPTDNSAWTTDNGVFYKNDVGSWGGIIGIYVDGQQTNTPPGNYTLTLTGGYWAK

With TTGTTKL, the “polymerisation of Dr hemagglutinin judged by hemaglutination assay” value is reported as “completely abolished”.
